Measured values reported in US6933322B2, “Substituted naphthylenes for the treatment of non-insulin dependent diabetes mellitus” (Wyeth, priority 2002, dated 2005).

Row | Structure (SMILES) | melting point
1 | O=S(=O)(Nc1ccc2c(OCc3csc(-c4ccc(Cl)cc4)n3)cccc2c1)C(F)(F)F [Example 44, N-{5-[2-(4-Chloro-phenyl)-thiazol-4-ylmethoxy]-naphthalen-2-yl}-C,C,C-trifluoro-methanesulfonamide] | 151 to 153 °C
2 | O=S(=O)(Nc1ccc2c(OCc3csc(-c4ccc(F)cc4)n3)cccc2c1)C(F)(F)F [Example 45, C,C,C-Trifluoro-N-{5-[2-(4-fluoro-phenyl)-thiazol-4-ylmethoxy]-naphthalen-2-yl}-methanesulfonamide] | 170 to 173 °C
3 | CC(C)(C)c1ccc(-c2nc(COc3cccc4cc(NS(=O)(=O)C(F)(F)F)ccc34)cs2)cc1 [Example 47, N-{5-[2-(4-tert-Butyl-phenyl)-thiazol-4-ylmethoxy]-naphthalen-2-yl}-C,C,C-trifluoro-methanesulfonamide] | 174 to 175 °C
4 | O=S(=O)(Nc1ccc2c(OCc3csc(C4COc5ccccc5O4)n3)cccc2c1)C(F)(F)F (stereo not shown) [Example 50, N-{5-[2-(2,3-Dihydro-benzo[1,4]dioxin-2-yl)-thiazol-4-ylmethoxy]-naphthalen-2-yl}-C,C,C-trifluoro-methanesulfonamide] | 183 to 185 °C
5 | O=S(=O)(Nc1ccc2c(OCc3csc(-c4ccccc4)n3)cccc2c1)C(F)(F)F [Example 51, C,C,C-Trifluoro-N-[5-(2-phenyl-thiazol-4-ylmethoxy)-naphthalen-2-yl]-methanesulfonamide] | 89 to 99 °C
6 | O=S(=O)(Nc1ccc2c(OCc3csc(-c4ccccc4Cl)n3)cccc2c1)C(F)(F)F [Example 54, N-{5-[2-(2-Chloro-phenyl)-thiazol-4-ylmethoxy]-naphthalen-2-yl}-C,C,C-trifluoromethanesulfonamide] | 128 to 129 °C
7 | O=S(=O)(Nc1ccc2c(OCc3csc(-c4ccc(OC(F)(F)F)cc4)n3)cccc2c1)C(F)(F)F [Example 55, C,C,C-Trifluoro-N-{5-[2-(4-trifluoromethoxy-phenyl)-thiazol-4-yl-methoxy]-naphthalen-2-yl}-methanesulfonamide] | 131 to 132 °C
8 | O=S(=O)(Nc1ccc2c(OCc3nc(-c4ccc(F)cc4)sc3Br)cccc2c1)C(F)(F)F [Example 56, N-{5-[5-Bromo-2-(4-fluoro-phenyl)-thiazol-4-ylmethoxy]-naphthalen-2-yl}-C,C,C-trifluoromethanesulfonamide] | 139 to 140 °C
9 | CC(C)(C)c1ccc(C2(COc3cccc4cc(NS(=O)(=O)C(F)(F)F)ccc34)N=CNO2)cc1 (stereo not shown) [Example 59, N-{5-[5-(4-tert-Butyl-phenyl)-[1,2,4]-oxadiazol-5-ylmethoxy)-naphthalen-2-yl}-C,C,C-trifluoro-methanesulfonamide] | 154 to 155 °C
10 | O=S(=O)(Nc1ccc2c(OCc3noc(C45CC6CC(CC(C6)C4)C5)n3)cccc2c1)C(F)(F)F [Example 60, N-[5-(5-Adamantan-1-yl-[1,2,4]oxadiazol-3-ylmethoxy)-naphthalen-2-yl]-C,C,C-trifluoro-methanesulfonamide] | 60 to 62 °C
11 | N#Cc1ccc(C2(COc3cccc4cc(NS(=O)(=O)C(F)(F)F)ccc34)N=CNO2)cc1 (stereo not shown) [Example 61, N-{5-[5-(4-cyano-phenyl)-[1,2,4]-oxadiazol-5-ylmethoxy)-naphthalen-2-yl}-C,C,C-trifluoro-methanesulfonamide] | 184 to 185 °C
12 | COc1cccc(C2(COc3cccc4cc(NS(=O)(=O)C(F)(F)F)ccc34)N=CNO2)c1 (stereo not shown) [Example 62, N-{5-[5-(3-methoxy-phenyl)-[1,2,4]-oxadiazol-5-ylmethoxy)-naphthalen-2-yl}-C,C,C-trifluoro-methanesulfonamide] | 138 to 140 °C
13 | COc1ccc(C2(COc3cccc4cc(NS(=O)(=O)C(F)(F)F)ccc34)N=CNO2)cc1 (stereo not shown) [Example 64, N-{5-[5-(4-methoxy-phenyl)-[1,2,4]-oxadiazol-5-ylmethoxy)-naphthalen-2-yl}-C,C,C-trifluoro-methanesulfonamide] | 146 to 148 °C
14 | O=S(=O)(Nc1ccc2c(OCc3nc(-c4ccc(F)cc4)no3)cccc2c1)C(F)(F)F [Example 65, C,C,C-Trifluoro-N-{5-[3-(4-fluoro-phenyl)-[1,2,4]oxadiazol-5-yl-methoxy]-naphthalen-2-yl}-methanesulfonamide] | 131 to 132 °C
15 | O=S(=O)(Nc1ccc2c(OCc3nc(-c4cccc(C(F)(F)F)c4)no3)cccc2c1)C(F)(F)F [Example 66, C,C,C-Trifluoro-N-{5-[3-(3-trifluoromethyl-phenyl)-[1,2,4]oxadiazol-5-ylmethoxy]-naphthalen-2-yl}-methanesulfonamide] | 155 to 156 °C
16 | NC(=O)Nc1ccc2c(OCc3ccccc3-c3ccccc3)cccc2c1 [Example 74, [5-(Biphenyl-2-ylmethoxy)-naphthalen-2-yl]-urea] | 159 to 161 °C
17 | COc1ccc(-c2ccc(Cl)cc2)cc1COc1cccc2cc(NC(N)=O)ccc12 [Example 76, [5-(4′-Chloro-4-methoxy-biphenyl-3-ylmethoxy)-naphthalen-2-yl]-urea] | 200 °C (dec.)
18 | NC(=O)Nc1ccc2c(OCc3ccc(-c4ccc(Cl)cc4)cc3)cccc2c1 [Example 77, [5-(4′-Chloro-biphenyl-4-ylmethoxy)-naphthalen-2-yl]-urea] | 182 °C (dec.)
19 | O=S(=O)(Nc1ccc2c(OCc3nc4ccccc4s3)cccc2c1)C(F)(F)F [Example 78, N-[5-(Benzothiazol-2-ylmethoxy)-naphthalen-2-yl]-C,C,C-trifluoro-methanesulfonamide] | 190 to 192 °C
20 | Cc1oc(-c2ccccc2)nc1COc1cccc2cc(NS(=O)(=O)C(F)(F)F)ccc12 [Example 79, N-[5-(5-methyl-2-phenyl-oxazol-4-ylmethoxy)naphthalen-2-yl]C,C,C-trifluoromethanesulfonamide] | 192 to 194 °C
21 | O=S(=O)(Nc1ccc2c(OCc3coc(-c4ccccc4)n3)cccc2c1)C(F)(F)F [Example 80, N-[5-(2-phenyl-oxazol-4-ylmethoxy)naphthalen-2-yl]C,C,C-trifluoromethanesulfonamide] | 195 to 197 °C
22 | Cc1oc(-c2ccc(F)cc2)nc1COc1cccc2cc(NS(=O)(=O)C(F)(F)F)ccc12 [Example 82, N-{5-[5-methyl-2-(4-fluoro-phenyl)-oxazol-4-ylmethoxy]naphthalen-2-yl}C,C,C-trifluoromethanesulfonamide] | 178 to 180 °C
23 | O=S(=O)(Nc1ccc2c(OCc3ccc4ccccc4c3)cccc2c1)C(F)(F)F [Example 83, N-[5-(Naphthalen-2-ylmethoxy)-naphthalen-2-yl]-C,C,C-trifluoro-methanesulfonamide] | 140 to 142 °C
24 | O=S(=O)(Nc1ccc2c(OCc3coc(-c4ccc(Cl)cc4)n3)cccc2c1)C(F)(F)F [Example 84, N-{5-[2-(4-Chloro-phenyl)-oxazol-4-ylmethoxy]naphthalen-2-yl}C,C,C-trifluoromethanesulfonamide] | 198 to 200 °C
25 | CC(C)(C)c1ccc(-c2nc(COc3cccc4cc(NS(=O)(=O)C(F)(F)F)ccc34)co2)cc1 [Example 85, N-{5-[2-(4-tert-Butyl-phenyl)-oxazol-4-ylmethoxy]naphthalen-2-yl}C,C,C-trifluoromethanesulfonamide] | 165 to 167 °C
